# Assay results as given in patent US11850254B2, “Tryptamine compositions for enhancing neurite outgrowth” (TURTLE BEAR HOLDINGS, LLC, priority 2019, dated 2023).
# “Also recorded” adds a separate entry of the source. Like-named read-outs stand apart in the source and are kept apart here.
# Key:
# [1] = test system: PC12 cells treated with conditioned media from 1321N1 human astrocytoma cells; experiment: Neurite outgrowth of PC12 cells treated with conditioned media from 1321N1 cells; format: cell-based, rat; settings: conditioned media from treated 1321N1 cells; FIG. 11, n=3
# From the text: Although the assay aimed to explore potential synergistic effects of combining HE and psilocybin analogs, this was not clearly observed. […] 1321N1 human brain astrocytoma cells are known to excrete neurologically beneficial compounds when stimulated with neurotrophic compounds and fungal extracts including lion's mane (Mori et al., Biological and Pharmaceutical Bulletin, 9: 1727-1732 (2008)). While some fungi have well established mechanisms by which they benefit neurological health, little is known about the role of psilocybin analogs specifically. Generally following the protocol of Mori et al., 2008, 1321N1 human astrocytoma cells were treated with psilocybin analogs, and conditioned media was collected and applied to differentiated rat pheochromocytoma PC12 cells to determine the resulting impact on neurite outgrowth.
# [2] = test system: nerve growth factor (NGF) protein in human 1321N1 brain cells; experiment: ELISA of NGF protein in 1321N1 cells; format: cell-based; settings: compared to a vehicle control; n=3; p<0.05
# From the text: Accordingly, preliminary research has started to reveal the mechanisms by which psilocybin analogs may confer neurotrophic benefits that facilitate neurite outgrowth.
# (§1) See Ly et al., “Psychedelics Promote Structural and Functional Neural Plasticity,” Cell Rep.
# neurogenesis = settings: Ly et al. 2018; cited from earlier work
# human U87 cells = settings: Zhang et al. 2020; cited from earlier work
# humans = settings: cited from earlier work
# [3] = test system: anti-inflammatory cytokine IL-10 in human 1321N1 brain cells; experiment: ELISA of IL-10 in 1321N1 cells; format: cell-based
# From the text: as §1
# [4] = test system: cortical neurons from rat embryo; experiment: Neurite outgrowth and length in cultured neurons (Neurofit), tubulin immunostaining, High-Content Screening; settings: versus vehicle control, at the concentrations tested
# 5-HT2A receptor = 5-HT2A receptor (Homo sapiens, UniProt P28223); settings: cited from earlier work
# 5-HT2A receptor, sequence (P28223 whole entry): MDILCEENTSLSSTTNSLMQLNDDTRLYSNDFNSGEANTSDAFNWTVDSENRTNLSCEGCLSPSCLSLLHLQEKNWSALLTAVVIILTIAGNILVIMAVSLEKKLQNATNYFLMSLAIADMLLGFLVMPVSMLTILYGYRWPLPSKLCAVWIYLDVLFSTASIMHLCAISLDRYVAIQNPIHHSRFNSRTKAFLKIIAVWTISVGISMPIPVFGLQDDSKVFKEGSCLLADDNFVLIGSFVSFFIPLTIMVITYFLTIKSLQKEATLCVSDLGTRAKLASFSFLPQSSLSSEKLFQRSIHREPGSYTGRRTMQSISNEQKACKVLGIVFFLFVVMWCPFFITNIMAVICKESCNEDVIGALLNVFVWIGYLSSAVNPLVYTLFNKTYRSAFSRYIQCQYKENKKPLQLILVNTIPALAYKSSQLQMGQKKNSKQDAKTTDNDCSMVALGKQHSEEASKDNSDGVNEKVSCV
smiles,measurement,setting,value
"NCCc1c[nH]c2cccc(OP(=O)(O)O)c12 [norbaeocystin, 4-phosphoryloxy-tryptamine]",neurite outgrowth in PC12 cells,[1],induce neurite outgrowth
same,expression of NGF protein,[2],increased expression of NGF protein; also recorded: induces the expression; also recorded: induction of NGF protein
"COc1cc(CC(C)N)c(OC)cc1I (centres unmarked) [DOI, 2,5-dimethoxy-4-iodoamphetamine]",neurogenesis,neurogenesis,promoted neurogenesis
CC(=O)O[C@@H]1C[C@@H]2C3=C(C(C)C)CC[C@]3(C)CC[C@@]2(C)[C@@H](O[C@@H]2OC[C@@H](O)[C@H](O)[C@H]2O)C=C1C=O [P],inhibition of gliomas,human U87 cells,inhibitors of gliomas
"CNCCc1c[nH]c2cccc(OP(=O)(O)O)c12 [baeocystin, 4-phosphoryloxy-N-methyltryptamine]",neurite outgrowth in PC12 cells,[1],induce neurite outgrowth
same,hallucinogenic effect,"humans; 4 mg consumed, Gartz 1991",gentle hallucinogenic experience
same,potency and psychotropic effects,humans; Gartz 1997,roughly akin to psilocybin
same,hallucinogenic effect,humans; oral consumption of 10 mg and 20 mg,did not produce any hallucinogenic effects
"CNCCc1c[nH]c2cccc(O)c12 [norpsilocin, 4-hydroxy-N-methyl-tryptamine]",neurite outgrowth in PC12 cells,[1],induce neurite outgrowth
same,expression of the anti-inflammatory cytokine IL-10,[3],induces the expression
same,"neurite outgrowth, in words",[4],did not perform better than vehicle control
"CCN(CC)C(=O)[C@@H]1C=C2c3cccc4[nH]cc(c34)C[C@H]2N(C)C1 [LSD, N,N-diethyl-D-lysergamide]",neurogenesis,neurogenesis,promoted neurogenesis
"CN(C)CCc1c[nH]c2ccccc12 [dimethyltryptamine, N,N-dimethyltryptamine]",neurogenesis,neurogenesis,promoted neurogenesis
"COc1cc(C[C@@H](C)N)c(OC)cc1I [(R)-2,5-dimethoxy-4-iodoamphetamine]",5-HT2A receptor activation,5-HT2A receptor,activate the 5-HT2A receptor
